The results in this text go back to patent US20250218201A1, “ANALYZING PHENOTYPES OF CELLS” (priority 2023, published 2025).

Assay type in all cases: cell-based
In data set [1] the test system is Jurkat (T Lymphocyte), Clone E6-1 cells. Nature of the data set: Annexin V / SYTOX AADvanced flow cytometry of cell death states. The procedure:
(§1) The REM-I platform was used to obtain images of cells at different states of dying than one another. More specifically, live, viable Jurkat (T Lymphocyte), Clone E6-1 cells were cultured in RPMI-1640 medium (ThermoFisher Scientific) with 10% fetal bovine serum (FBS) at 37° C. with 5% CO2. A suspension of the cells was prepared at a concentration of 2×10^6 cells/mL for apoptosis and necrosis induction. The following treatments were used to induce cell death (e.g., via apoptosis or necrosis) in different samples of the suspension.
(§2) Sample 2: Camptothecin (ab120115, Abcam), a DNA topoisomerase inhibitor, was administered to the suspension of Jurkat cells at a final concentration of 10 μM and incubated at 37° C. with 5% CO2 for six hours to induce apoptosis by perturbing topoisomerase I.
(§3) Sample 3: Staurosporine (ab120056, Abcam), a protein kinase inhibitor, was administered to the suspension of Jurkat cells at a final concentration of 2 μM and incubated at 37° C. with 5% CO2 for either three hours or for eighteen hours to induce apoptosis by G2/M cell cycle arrest.
(§4) Following treatment, each of the samples was split into two aliquots, one for use in REM-I morphology profiling and one for use in flow cytometry assessment. For morphology profiling, treated cells at a concentration of 3×10^6 cells per mL in a single cell suspension were run on the REM-I platform with a flow rate of about 300 cells/second, and more than about 40,000 images were captured. The data suite 190, described with reference to FIG. 1, was trained using the multi-dimensional feature vectors from the cells and used to generate reduced-dimensionality plots which will be described with reference to FIGS. 16, 17, and 18. For flow cytometry, 1×10^6 treated cells in 100 μL were incubated with 5 μL of PACIFIC BLUE™ Annexin V stock (per manufacturer recommendation) and 1 μL of SYTOX™ AADVANCED™ (A35136, ThermoFisher) for 30 minutes at room temperature and then analyzed with the BD FACSMELODY™ cell sorter and BD FACSCHORUS™ software (BD Biosciences, California).

Test in data set [2]: as above
As to conditions: human, read-out: viable cells (flow cytometry, Annexin V/SYTOX staining). As for the experimental part: as §1, §2, §3, §4

Data set [3] deals with Jurkat (T Lymphocyte), Clone E6-1 cells. Kind of data set: REM-I label-free high-dimensional morphology profiling (UMAP). As to conditions: 10 μM camptothecin, 6 hours, unstained brightfield images. As for the experimental part: as §1
Sample 2: Camptothecin (ab120115, Abcam), a DNA topoisomerase inhibitor, was administered to the suspension of Jurkat cells at a final concentration of 10 μM and incubated at 37° C. with 5% CO2 for six hours to induce apoptosis by perturbing topoisomerase I. […]
Following treatment, each of the samples was split into two aliquots, one for use in REM-I morphology profiling and one for use in flow cytometry assessment. […] For flow cytometry, 1×10^6 treated cells in 100 μL were incubated with 5 μL of PACIFIC BLUE™ Annexin V stock (per manufacturer recommendation) and 1 μL of SYTOX™ AADVANCED™ (A35136, ThermoFisher) for 30 minutes at room temperature and then analyzed with the BD FACSMELODY™ cell sorter and BD FACSCHORUS™ software (BD Biosciences, California).

Setting [4] is: 2 μM staurosporine, eighteen hours.
Setting [5] is: 2 μM staurosporine, three hours.

The structures appear in SMILES notation.

Regarding `CN[C@@H]1C[C@H]2O[C@@](C)([C@@H]1OC)n1c3ccccc3c3c4c(c5c6ccccc6n2c5c31)C(=O)NC4` [staurosporine, Staurosporine], in data set [1] (setting [4]), the “dead cells (flow cytometry, Annexin V/SYTOX staining)” value is 12.4% and the “necrotic cells (flow cytometry, Annexin V/SYTOX staining)” value worked out at 85.0%. In addition, in data set [1] (setting [5]), the “apoptotic cells (flow cytometry, Annexin V/SYTOX staining)” value is listed as 6.96%; the “dead cells (flow cytometry, Annexin V/SYTOX staining)” value stood at 14.1%; the “necrotic cells (flow cytometry, Annexin V/SYTOX staining)” value is given as 64.5%. Besides, in data set [2] (Jurkat cells, 2 μM staurosporine, three hours), the viability at 3 h, 2 μM stood at 14.5%.

As for `CC[C@@]1(O)C(=O)OCc2c1cc1n(c2=O)Cc2cc3ccccc3nc2-1` [Sample 2, Camptothecin], the “apoptotic cells (flow cytometry, Annexin V/SYTOX staining)” value in data set [1] (10 μM camptothecin, six hours, 37° C.) is 28.7%. The viability at 6 h, 10 μM in data set [2] (Jurkat (T lymphocyte), Clone E6-1 cells, 10 μM camptothecin, six hours, 37° C.) worked out at 71%. For the same compound, the “morphological profile on UMAP compared to healthy cells of Sample 1” value in data set [3] is “morphological shift in the main population”.
